Measurements published in PubChem BioAssay AID651549 (Sanford-Burnham Center for Chemical Genomics, 2012).
Activity calls are given as the source filed them.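 Rule for the calls: active = compounds blocking the PEG3 reporter with IC50 up to 10 µM at either incubation, yet sparing the GAPDH control reporter; inactive = the rest.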

Assay: GAPDH and PEG-3 promoter luciferase suppression – cell-based, luminescence, set 2, counter-screen for PEG-3 promoter inhibitor project, dose response (AID 651549)
Details: HeLa PEG-Prom-luciferase or GAPDH-reporter, 6/24 h

| Compound | IC50 (GAPDH, run 1, 6 h) | IC50 (GAPDH, run 1, 24 h) | IC50 (PEG-3, run 1, 6 h) | IC50 (PEG-3, run 1, 24 h) |
| --- | --- | --- | --- | --- |
| Cc1cccc(NC(=O)c2oc3ccc(S(=O)(=O)N4CCOCC4)cc3c2C)c1C | inactive | 6.39 µM | > 99 µM (inactive) | 8.47 µM |
| COCCn1c(C)cc(C(=O)COc2ccc(C)nc2[N+](=O)[O-])c1C | inactive | inactive | inactive | inactive |
| O=C(O)c1ccc(Nc2nc3c(s2)CCCC3)cc1 | 8.49 µM | 9.1 µM | inactive | inactive |
| CS(=O)(=O)c1ccc(-c2sc3ccccc3c2C#CCCO)cc1 | inactive | inactive | inactive | inactive |
| COC(=O)c1ccc2nc(Nc3nc4ccc(F)cc4s3)sc2c1 | < 1 µM | 0.533 µM | < 1 µM | 2.74 µM |
| Cc1cc(C)c(C)c(S(=O)(=O)N2CCN(C(=O)c3cc(=O)[nH]c4ccccc34)CC2)c1C | inactive | 4.79 µM | > 99 µM (inactive) | inactive |
| NS(=O)(=O)c1ccc(CCNc2nn3c(-c4ccc(F)c(Cl)c4)cnc3s2)cc1 | inactive | 2.38 µM | inactive | 2.99 µM |
| CC(=O)c1sc2c(c1OC(=O)c1ccc(Cl)cc1Cl)c(=O)n(-c1ccccc1)c(=S)n2-c1ccccc1 | 0.853 µM | 0.766 µM | > 99 µM (inactive) | 5.59 µM |
| Cc1oc(-c2ccc3c(c2)OCCO3)cc1C(=O)O | 4.9 µM | 7.36 µM | 7.66 µM | inactive |
| CN1OC[C@@H]2CN(S(=O)(=O)c3cccc(C(F)(F)F)c3)[C@H](c3ccc(-c4cc5ccccc5o4)cc3)C[C@@H]21 | inactive | 6.66 µM | inactive | inactive |
| Cc1cccc(NC(=O)c2nc(S(=O)(=O)Cc3ccccc3)ncc2Cl)c1 | 8.24 µM | 7.13 µM | inactive | inactive |
| CCC(c1nnnn1-c1ccc2c(c1)OCCO2)N1CCC(n2c(=O)[nH]c3ccccc32)CC1 (stereo not drawn) | inactive | 4.01 µM | inactive | inactive |
| CCOc1ccc(-n2cc(-c3ccccc3)c3c(N4CCOCC4)ncnc32)cc1 | > 99 µM (inactive) | > 99 µM (inactive) | > 99 µM (inactive) | > 99 µM (inactive) |
| COc1cc2nc(CN3CC=C(c4ccccc4)CC3)[nH]c(=O)c2cc1OC | inactive | inactive | inactive | inactive |
| CCC1(O)C(=O)OCc2c1cc1n(c2=O)Cc2cc3cc(O)ccc3nc2-1 (stereo not drawn) | 3.1 µM | 4.36 µM | 3.1 µM | 9.31 µM |
| CCSc1nc2ccccc2n1C(=O)/C=C\c1ccc(OC)c(OC)c1 | 6.8 µM | 5.39 µM | 6.76 µM | 6.91 µM |
| COc1ccc2[nH]c(=O)c(CN(Cc3cccnc3)S(=O)(=O)c3ccccc3F)cc2c1 | inactive | 5.38 µM | > 99 µM (inactive) | inactive |
| C[C@]12CC[C@H]3C(CCC4(O)CC(O)CC[C@]34C=O)C1=CC[C@H]2c1ccc(=O)oc1 (stereo partly drawn) | 3.59 µM | inactive | 1.52 µM | 7.64 µM |
| O=C(COc1ccc2c(c1)CCC2)Nc1ccccn1 | 2.7 µM | 1.82 µM | 2.41 µM | 5.02 µM |
| Cc1cc(C)cc(NS(=O)(=O)c2ccc3c(c2)c(=O)n(C)c(=O)n3C)c1 | inactive | 1.85 µM | > 99 µM (inactive) | 4.62 µM |
| Cc1nc2c(-c3ccc(Cl)cc3)c(C)[nH]n2c(=O)c1Cc1ccccc1 | inactive | 1.74 µM | > 99 µM (inactive) | 2.21 µM |
| COc1ccc(Nc2ncnc3ccc(Br)cc23)c(OC)c1 | 1.16 µM | 1.68 µM | 1.05 µM | 0.798 µM |
| CC1CCN(c2nc3ccc(C(=O)O)cc3s2)CC1 | 1.93 µM | 2.14 µM | 1.01 µM | 1.51 µM |
| COc1ccc(C(=O)Nc2ccc(C)cn2)c(OC)c1 | 1.07 µM | 3.41 µM | 3.63 µM | 4.17 µM |
| COC(=O)C1=C(CN2CCCc3ccccc32)NC(=O)NC1c1ccc(F)cc1 (stereo not drawn) | 1.39 µM | 0.789 µM | 0.625 µM | 0.681 µM |
| O=C(NCC1CCCO1)C(c1ccc(F)cc1)N(C(=O)Cn1nnc(-c2ccc(F)cc2)n1)c1cccc(O)c1 (stereo not drawn) | inactive | inactive | > 99 µM (inactive) | inactive |
| CC(C)(C)c1ccc(Oc2ccc(N)cc2)cc1 | 6.12 µM | 5.35 µM | 6.09 µM | 6.51 µM |
